The results in this text go back to patent US7256172B1, “Method of treatment and agents useful for same” (The University of Melbourne, priority 1998, dated 2007).

The term pEC50 denotes the negative decadic logarithm of the EC50, by convention in mol/L. The low end stands for a large EC50, the high end for a small EC50.

Experiment [1] has as its system isolated human bronchioles. Here is the method: Small (500 μm) bronchioles were carefully dissected from discarded sections of human left lung which had been excised at surgery from two male lung cancer patients (Royal Melbourne Hospital, Melbourne, Australia).
Dissection of these bronchioles required a fine-dissecting microscope and an assistant to continually flood the preparation with cold oxygenated Krebs solution to remove air bubbles and keep the tissue viable. Bronchioles approximately 2 mm in length were then mounted on […] diameter stainless wires in a Krebs solution-filled myograph chamber, as described for the mouse bronchus preparation above.

Experiment [2] relates to human coronary artery rings.
The test system of another experiment is mouse bronchial rings. To be noted: for relaxation in presence of NO blockers: L—NOARG (100 μM) and HbO (20 μM); for response of epithelium-intact bronchi: contracted to approximately 40% Fmax with carbachol; for relaxation after removal of the epithelium: epithelium removed with 0.1% v/v Triton X-100; for response in presence of cyclooxygenase inhibitors: indomethacin (3 μM) or aspirin (100 μM); for maximum relaxation (Rmax) / sensitivity (pEC50): main bronchi with epithelium; for maximum relaxation (Rmax): % of initial force to carbachol; for sensitivity (pEC50): contracted with carbachol; for response after desensitisation to thrombin: post-thrombin; for response after desensitisation to trypsin: post-trypsin. The text has this: (§1) The right and left main bronchi and their first order branches of specific pathogenfree (SPF) Balb/c mice (15–20 g; either sex), Hartley tricolour guinea-pigs (300–400 g; male) and Sprague-Dawley rats (200–350 g; either sex), all killed by either cervical dislocation or overdosed (i.p.) with sodium pentobarbitone, were cleared of surrounding connective tissue, nerves and blood vessels under a dissecting microscope and placed in cold, carbogenated (95% v/v O2,5% v/v CO2) Krebs solution (Kemp and Cocks, 1997). Human airway preparations (0.5–1 mm in external diameter) were dissected from lungs of cancer patients undergoing thoracotomy at The Royal Melbourne Hospital, Melbourne, Australia. The epithelium was removed from some bronchi either by mechanical abrasion of the luminal surface (guinea-pig) or by brief, gentle intraliminal flushing of the airways with Krebs containing 0.1% v/v Triton-X100 (mouse and rat). In each case, removal of the epithelium was verified histologically in 8 μm formalin-fixed, paraffin sections stained with haemotoxylin and eosin. Ring segments (approximately 2 mm long) of bronchi and bronchioles were mounted in Krebs (37° C.) on stainless steel wires (40 μm) in dual channel (5 ml) Mulvany-Halpern myographs (JP Trading, Aarhus, Denmark) to record changes in isometric force (Kemp and Cocks, 1997). After equilibration at a passive force between 0.2 g and 0.3 g, tissues were contracted to their maximum levels of active force (Fm.),) with acetylcholine (30 μM), thoroughly washed with Krebs and allowed to return to baseline. Various drugs or their vehicles were then added and 30 min later all tissues were contracted to approximately 40% Fmax with titrated concentrations of carbachol (10–500 nM). The L-type voltage-operated Ca^2+ channel inhibitor, nifedipine (0.3 μM) was added to all mouse and rat tissues after obtaining Fmax to control characteristic phasic contractile activity with carbachol.
If no response occurred the tissues were then exposed to cumulative concentrations of either SLIGRL—NH2 (SEQ ID NO:2) or SFLLRN—NH2 (SEQ ID NO:1) (0.1–30 μM).
(§2) Results are presented as mean±s.e mean and pEC50 (sensitivity) values were calculated by fitting concentration-response curves to a four parameter logistic function (Kemp and Cocks, 1997) using Graphpad Prism (version 2.0). Statistical comparison of mean pEC50 and maximum response (Rmax) values were compared by two-tailed unpaired Student's t-tests or one way analysis of variance (ANOVA) with Tukey-Kramer's t-tests for multiple comparisons. P<0.05 was accepted as significant. Unless specified, all averaged data are from n>5 experiments.
Mouse bronchus preparations were carefully mounted horizontally on fine (40 μm) stainless steel wires attached to the jaws of a Mulvany-Halpem myograph. After 60 min at 37° C., all rings were stretched to 0.5 g passive force, which had been determined in preliminary experiments to be optimal, and allowed to recover from that stretch for a further 30 min. Maximum contraction (Fmax) in each tissue was then determined with exogenously applied acetylcholine (ACh; 30 μM) followed by washout. A further 30 min equilibration time was allowed before the tissues were actively contracted to between 20% and 60% of their individual Fm.” values with titrated concentrations of carbachol (10–100 nM). […] In some cases, tissues were treated with a range of drugs prior to contraction to approximately […] Fmax. These included the cyclooxygenase inhibitors indomethacin and aspirin, the nitric oxide (NO) synthase inhibitor N′-nitro-L-(L-NOARG), the NO scavenger oxyhaemoglobin (Hb0), and the L-voltage-operated Cat' channel inhibitor nifedipine.
After an initial passive stretch to 0.5 g (Ti) and recovery, each ring was contracted with acetylcholine (Ach; 30 μM). The contraction was taken as the tissue maximum and referred to as Fmax.

The next experiment relates to rat gastric fundus. To be noted: mucosa intact, contracted with acetylcholine. From the text:
Longitudinal strips of gastric fundus from male Sprague-Dawley rats were suspended under 1 g passive isometric tension in Krebs solution.

A further experiment concerns rat isolated bronchi.
Description: as §1
as §2, with “All cumulative responses (relaxations and contractions) were normalised as percentages of the initial level of active force to carbachol. Results” for “Results”

Experiment [3] deals with first generation branches of the mouse main bronchi. To be noted: mouse bronchioles.
Description: as §1
as §2, with “All cumulative responses (relaxations and contractions) were normalised as percentages of the initial level of active force to carbachol. Results” for “Results”

Experiment [4] has as its system guinea-pig isolated bronchi.
Description: as §1
Mouse bronchus preparations were carefully mounted horizontally on fine (40 μm) stainless steel wires attached to the jaws of a Mulvany-Halpem myograph. After 60 min at 37° C., all rings were stretched to 0.5 g passive force, which had been determined in preliminary experiments to be optimal, and allowed to recover from that stretch for a further 30 min. Maximum contraction (Fmax) in each tissue was then determined with exogenously applied acetylcholine (ACh; 30 μM) followed by washout. A further 30 min equilibration time was allowed before the tissues were actively contracted to between 20% and 60% of their individual Fm.” values with titrated concentrations of carbachol (10–100 nM).

[5] abbreviates: desensitized to both thrombin and trypsin.

Where two headings read alike, the source gives them in different places. No end group written: not given here.

Turning to SFLLRN [SFLLRN—NH2], the “response of human bronchioles” value in experiment [1] is recorded as “relaxed the bronchioles”. Further, the “maximum relaxation relative to isoprenaline plus IBMX” value in experiment [1] (contracted to approximately 30% Fmax with carbachol) is given as “approximately 30%”. In experiment [2] (setting [5]), the Rmax after desensitisation is 92.0±5.0% and the pEC50 after desensitisation came out at 6.4±0.2. Also, the “relaxation after removal of the endothelium” value in experiment [2] (endothelium-denuded) is “abolished”. In experiment [2] (endothelium-intact, control), the “maximum (Rmax % contraction reversal)” value amounted to 95.2±1.3% and the negative-log EC50 (pEC50) was 6.9±0.1 −log M. Further, in experiment [2] (untreated, n=8), the “pEC50, untreated control of desensitisation experiment” value was found to be 7.0±0.1. Also, in the experiment on mouse bronchial rings, the “relaxation in presence of NO blockers” value was “unaffected”, the “response of epithelium-intact bronchi” value is “powerful concentration dependent relaxations”, the “relaxation after removal of the epithelium” value is on record as “abolished” and the “response in presence of cyclooxygenase inhibitors” value was “converted to concentration-dependent contractions”. Further, in the experiment with mouse bronchial rings, the “maximum relaxation (Rmax)” value is given as 76±11%, the “sensitivity (pEC50)” value is recorded as 5.6±0.1 −log M, the “response after desensitisation to thrombin” value is “abolished” and the “response after desensitisation to trypsin” value (from here on “response … to trypsin”) is listed as “abolished”. The “response of rat gastric fundus” value in the experiment on rat gastric fundus was “relaxation”. The “response of rat bronchial rings” value with rat isolated bronchi is listed as “only caused a contraction”. Further, in experiment [3], the “maximum relaxation (Rmax)” value is 58±10% and the “sensitivity (pEC50)” value is listed as 5.5±0.02. For the same substance, the “response of epithelium-intact rings” value in experiment [4] was “only caused concentration-dependent contractions”.

As for SLIGRL-NH2 [SLIGRL—NH2], in experiment [1], the “response of human bronchioles” value is reported as “appeared to cause some contraction, but this was most likely baseline drift”. For the same substance, the “relaxation” value in experiment [2] (endothelium-intact) is reported as “no relaxation”. Further, in the experiment on mouse bronchial rings, the “relaxation in presence of NO blockers” value is “unaffected”, the “response of epithelium-intact bronchi” value was “powerful concentration dependent relaxations”, the “relaxation after removal of the epithelium” value is “abolished” and the “response in presence of cyclooxygenase inhibitors” value is reported as “abolished”. In the experiment with mouse bronchial rings, the “maximum relaxation (Rmax)” value stood at 94±3%, the “sensitivity (pEC50)” value is on record as 5.6±0.1 −log M, the “response after desensitisation to thrombin” value is recorded as “unaffected” and the “response … to trypsin” value is listed as “abolished”. Besides, the “response … to trypsin” value in the experiment on mouse bronchial rings (listed as PAR2-AP) was “virtually abolished”. The “response of rat gastric fundus” value in the experiment on rat gastric fundus is recorded as “relaxation”. In the experiment on rat isolated bronchi (rat bronchi), this substance had an Rmax of 56±5% and a pEC50 of 5.5±0.1. Also, in experiment [3], the “maximum relaxation (Rmax)” value is listed as 58±4% and the “sensitivity (pEC50)” value stood at 5.1±0.05. The “response of epithelium-intact rings” value in experiment [4] is “Concentration dependent relaxations to PAR2-AP were observed in six out of thirteen bronchial rings”. In addition, the “response of epithelium-denuded rings” value in experiment [4] (epithelium-denuded) is “either caused a small contraction or no response”. Further, in experiment [4] (guinea-pig bronchi), the Rmax was 31±5% and the pEC50 amounted to 5.4±0.2.
